The values below come from patent US20250368648A1, “MULTI-CYCLIC IRAK AND FLT3 INHIBITING COMPOUNDS AND USES THEREOF” (CHILDREN'S HOSPITAL MEDICAL CENTER, priority 2022, published 2025).

Assay [1] relates to MOLM14-FLT3-ITD (D835Y) AML cells. Put plainly: Caspase-Glo 3/7 apoptosis assay, time course. It is filed as cell-based. The note with it: 4.12 nM added to dose level 7 of Compound 106 with dose level 7 of venetoclax.
For another assay, the target named is T1, IRAK1 (Homo sapiens, UniProt P51617).
T1 construct: purchased RBC (Reaction Biology) HotSpot assay
T1 sequence (P51617 whole entry): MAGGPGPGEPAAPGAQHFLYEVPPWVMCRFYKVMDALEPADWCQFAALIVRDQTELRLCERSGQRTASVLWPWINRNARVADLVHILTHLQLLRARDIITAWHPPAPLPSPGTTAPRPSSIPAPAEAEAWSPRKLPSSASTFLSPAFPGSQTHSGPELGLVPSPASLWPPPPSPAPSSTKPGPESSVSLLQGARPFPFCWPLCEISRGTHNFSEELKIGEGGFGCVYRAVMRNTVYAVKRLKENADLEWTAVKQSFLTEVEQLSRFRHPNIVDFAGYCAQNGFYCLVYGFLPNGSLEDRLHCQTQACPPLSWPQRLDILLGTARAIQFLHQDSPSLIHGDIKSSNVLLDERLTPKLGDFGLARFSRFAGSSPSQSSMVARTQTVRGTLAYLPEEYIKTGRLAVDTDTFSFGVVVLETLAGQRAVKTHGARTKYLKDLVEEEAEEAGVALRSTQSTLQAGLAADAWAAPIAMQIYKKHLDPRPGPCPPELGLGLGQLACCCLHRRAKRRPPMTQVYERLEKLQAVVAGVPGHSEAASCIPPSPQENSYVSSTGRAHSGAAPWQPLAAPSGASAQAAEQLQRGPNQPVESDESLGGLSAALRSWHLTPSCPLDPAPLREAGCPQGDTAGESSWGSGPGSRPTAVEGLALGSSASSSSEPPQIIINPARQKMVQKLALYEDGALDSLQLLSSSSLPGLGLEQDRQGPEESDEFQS
Put plainly: RBC HotSpot Kinase Assay, IRAK1. It is filed as biochemical. The note with it: HotSpot functional assay, isolated kinase enzyme, 33P-ATP. The method in brief:
(§1)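 Isolated kinases, possibly truncated or lacking regulatory receptor regions, were preincubated with compound for 20 min at room temp in 20 mM Hepes pH 7.5, 10 mM MgCl2, 1 mM EGTA, 2 mM DTT, 1% DMSO. Reactions were started with ^33P-ATP and run 2 h at room temperature; activity was read by P81 filter binding.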

Another assay concerns the target T2, IRAK4 (Homo sapiens, UniProt Q9NWZ3).
T2 sequence (Q9NWZ3 1-460): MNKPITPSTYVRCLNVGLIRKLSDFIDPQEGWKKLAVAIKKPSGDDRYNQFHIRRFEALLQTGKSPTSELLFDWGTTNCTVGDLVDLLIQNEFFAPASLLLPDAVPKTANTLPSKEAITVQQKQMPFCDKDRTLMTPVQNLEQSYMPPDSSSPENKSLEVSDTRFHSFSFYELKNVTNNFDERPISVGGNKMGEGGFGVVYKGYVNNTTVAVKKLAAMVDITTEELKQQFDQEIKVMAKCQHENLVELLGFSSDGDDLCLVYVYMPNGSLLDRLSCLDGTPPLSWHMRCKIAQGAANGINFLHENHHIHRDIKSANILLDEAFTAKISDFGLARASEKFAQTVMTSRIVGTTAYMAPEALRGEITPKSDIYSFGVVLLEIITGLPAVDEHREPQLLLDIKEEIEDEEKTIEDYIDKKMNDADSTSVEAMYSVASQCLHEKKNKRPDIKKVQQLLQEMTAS
As to the kind of experiment: RBC HotSpot Kinase Assay, IRAK4. In kind it is biochemical. Details: purchased RBC (Reaction Biology) HotSpot assay. The settings on record: HotSpot functional assay, isolated kinase enzyme, 33P-ATP. The procedure, abridged: as §1

In another assay the test system is NF-κB. As to the kind of experiment: NF-kB assay in THP-1-Blue NF-κB cells (SEAP reporter). It is filed as cell-based. The method, then:
THP-1-Blue NF-κB cells (InvivoGen) carrying a stable integrated NF-κB-inducible secreted embryonic alkaline phosphatase (SEAP) reporter construct were plated at a concentration of 1×10^5 cells per well. The cells were stimulated with Pam3CSK4 (1 ng/mL) or hIL1B (Ing/mL). After 10-20 minutes, the cells were then treated with vehicle (DMSO) or serial dilutions of the test compounds (10 doses tested for each test compound, with a 1:10 dilution series starting at 1 μM or 3 μM) with a final volume of 200 μL for 24 hours at 37° C. After 24 hours, the cells were centrifuged and 20 IL supernatant was incubated with 180 μL QUANTI-Blue reagent at 37° C. for 30-60 minutes. The levels of NF-κB-induced was measured in a microplate reader at 620 nm.

For a further assay, the target named is T3, FLT3 (Homo sapiens, UniProt P36888).
T3 sequence (P36888 27-993): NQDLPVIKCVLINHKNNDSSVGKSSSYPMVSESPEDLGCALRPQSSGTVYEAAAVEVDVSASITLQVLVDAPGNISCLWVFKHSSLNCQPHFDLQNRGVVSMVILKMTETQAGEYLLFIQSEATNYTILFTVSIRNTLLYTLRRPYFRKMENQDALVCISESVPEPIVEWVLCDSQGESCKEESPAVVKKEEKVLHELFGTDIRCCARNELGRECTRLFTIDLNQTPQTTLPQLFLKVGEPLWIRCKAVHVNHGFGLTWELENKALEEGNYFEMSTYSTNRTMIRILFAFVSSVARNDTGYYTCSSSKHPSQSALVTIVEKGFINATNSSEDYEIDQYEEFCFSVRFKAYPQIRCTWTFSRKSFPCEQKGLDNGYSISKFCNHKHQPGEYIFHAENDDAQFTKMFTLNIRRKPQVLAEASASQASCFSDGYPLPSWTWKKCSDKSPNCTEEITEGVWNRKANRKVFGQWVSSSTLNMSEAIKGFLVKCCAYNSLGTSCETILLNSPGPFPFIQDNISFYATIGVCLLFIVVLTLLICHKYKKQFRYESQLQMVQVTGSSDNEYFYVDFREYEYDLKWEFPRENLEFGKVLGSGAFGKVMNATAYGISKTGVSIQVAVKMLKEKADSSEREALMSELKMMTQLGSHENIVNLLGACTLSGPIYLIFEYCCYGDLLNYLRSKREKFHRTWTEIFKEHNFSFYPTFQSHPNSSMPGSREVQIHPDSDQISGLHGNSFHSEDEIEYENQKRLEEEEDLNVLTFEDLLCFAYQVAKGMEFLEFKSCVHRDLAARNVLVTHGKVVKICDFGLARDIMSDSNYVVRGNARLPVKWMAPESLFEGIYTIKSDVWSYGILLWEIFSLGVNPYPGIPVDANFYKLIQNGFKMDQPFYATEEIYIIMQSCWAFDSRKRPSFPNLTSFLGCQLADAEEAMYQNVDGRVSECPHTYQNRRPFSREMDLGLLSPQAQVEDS
As to the kind of experiment: RBC HotSpot Kinase Assay, FLT3. In kind it is biochemical. Details: purchased RBC (Reaction Biology) HotSpot assay. The settings on record: HotSpot functional assay, isolated kinase enzyme, 33P-ATP. The method in brief:
as §1

The test system of another assay is MOLM14 D835Y cells. Put plainly: MOLM14 D835Y cell viability assay (Cell Titer Glo). In kind it is cell-based. The note with it: Homo sapiens, MOLM-14, 48 h. As to the method:
The cell line has activated FLT3 receptors which carry additional resistance mutations in the kinase domain (D835Y).
MOLM14 D835Y cells were grown in RPMI-1640 media supplemented with 20% fetal bovine serum (FBS). […] After cell addition, 23 nL of test compound were transferred into individual wells (22 doses tested for each test compound, with a 1:2 dilution series starting at 10 μM) via a 1536 pin-tool. Bortezomib (final concentration 2.3 μM) was used as a positive control for cell cytotoxicity.
For orientation: Cellular ATP, detected with luciferase, serves as a proxy for viable cell number.

Setting [2] is: THP-1-Blue NF-κB cells stimulated with Pam3CSK4, 24 hours, read-out: NF-κB Pam3SCK4 IC50.
[3] abbreviates: THP-1-Blue NF-κB cells stimulated with hIL1B, 24 hours, read-out: NF-κB IL1B IC50.

pIC50: −log10 of the molar value. Like-named read-outs stand apart in the source and are kept apart here.

As for `Nc1ncn([C@@H]2O[C@H](CO)[C@@H](O)[C@H]2O)c(=O)n1` [Compound 5-azacitdine, 5-azacitdine, reference compound], the “benefit of a third agent added to Compound 106 with venetoclax (apoptosis)” value in assay [1] was “little to no additional benefit”.

One may read the pIC50 as the IC50 on a negative log10 scale, so that one unit is a factor of ten. With `COc1cc2ncc(-c3nc(N[C@@H]4CCCNC4)c(F)cc3F)n2nc1C1CC(C)(C)C1` [Compound 7a, (R)-6-(6-(3,3-dimethylcyclobutyl)-7-methoxyimidazo[1,2-b]pyridazin-3-yl)-3,5-difluoro-N-(piperidin-3-yl)pyridin-2-amine], the pIC50 against IRAK1 is 7.66; on IRAK4 it was 7.89; with NF-κB (setting [2]), 5.59; in the assay on NF-κB (setting [3]) it was 5.59; on FLT3, over 9.30.

Regarding `COc1cc2ncc(-c3ccc(C#N)c(N[C@@H]4CCCNC4)n3)n2nc1C1CC1` [Compound 28a, (R)-6-(6-cyclopropyl-7-methoxyimidazo[1,2-b]pyridazin-3-yl)-2-(piperidin-3-ylamino)nicotinonitrile], the pIC50 was 6.08 against IRAK1; 7.89 against IRAK4; 6.69 with NF-κB (setting [2]); 6.32 in the assay with NF-κB (setting [3]); over 9.30 against FLT3.

In the case of `COc1cc2ncc(-c3ccc(C#N)c(N[C@H]4CNCC[C@@H]4F)n3)n2nc1C1CC1` [Compound 29a, 6-(6-cyclopropyl-7-methoxyimidazo[1,2-b]pyridazin-3-yl)-2-(((3S,4S)-4-fluoropiperidin-3-yl)amino)nicotinonitrile], the negative-log IC50 (pIC50) was 8.00 on IRAK1; over 9.30 at IRAK4; 7.18 in the assay on NF-κB (setting [2]); 7.15 in the assay on NF-κB (setting [3]); over 9.30 on FLT3.

With `COc1cc2ncc(-c3nc(N[C@H]4CNC[C@@H]4F)ccc3F)n2nc1C1CC1` [Compound 45a, 6-(6-cyclopropyl-7-methoxyimidazo[1,2-b]pyridazin-3-yl)-5-fluoro-N-((3S,4S)-4-fluoropyrrolidin-3-yl)pyridin-2-amine], the negative logarithm of the IC50 (pIC50) against IRAK1 was 7.43; on IRAK4, over 9.30; in the assay on NF-κB (setting [2]) it was 7.36; in the assay with NF-κB (setting [3]), 7.35; in the assay with MOLM14 D835Y cells it was 7.70; on FLT3, over 9.30.

In the case of `COc1cc2ncc(-c3ccc(F)c(N[C@H]4CNC[C@@H]4F)n3)n2nc1C1CC1` [Compound 46a, 6-(6-cyclopropyl-7-methoxyimidazo[1,2-b]pyridazin-3-yl)-3-fluoro-N-((3S,4S)-4-fluoropyrrolidin-3-yl)pyridin-2-amine], the negative-log IC50 (pIC50) at IRAK1 was 7.92; against IRAK4 it was over 9.30; in the assay on NF-κB (setting [2]) it was 7.23; with NF-κB (setting [3]), 7.14; in the assay with MOLM14 D835Y cells it was 6.94; against FLT3 it was over 9.30.

On to `COc1cc2ncc(-c3nc(N[C@H]4CNCC[C@@H]4F)ccc3F)n2nc1C1CC1` [Compound 47a, 6-(6-cyclopropyl-7-methoxyimidazo[1,2-b]pyridazin-3-yl)-5-fluoro-N-((3S,4S)-4-fluoropiperidin-3-yl)pyridin-2-amine], for which the pIC50 at IRAK1 was 8.22; against IRAK4, over 9.30; with NF-κB (setting [2]), 7.35; with NF-κB (setting [3]) it was 7.02; in the assay with MOLM14 D835Y cells, 8.40; against FLT3, over 9.30.

`COc1cc2ncc(-c3nc(N[C@@H]4CCCNC4)c(F)cc3F)n2nc1C12CC(C1)C2` [Compound 65a, (R)-6-(6-(bicyclo[1.1.1]pentan-1-yl)-7-methoxyimidazo[1,2-b]pyridazin-3-yl)-3,5-difluoro-N-(piperidin-3-yl)pyridin-2-amine]: the pIC50 against IRAK1 was 7.74; at IRAK4 it was 8.05; in the assay with NF-κB (setting [2]) it was 6.51; in the assay on NF-κB (setting [3]), 6.39; against FLT3, over 9.30.

Turning to `COc1cc2ncc(-c3nc(N[C@H]4CNC[C@@H]4F)c(F)cc3F)n2nc1C1COC1` [Compound 71a, 3,5-difluoro-N-((3S,4S)-4-fluoropyrrolidin-3-yl)-6-(7-methoxy-6-(oxetan-3-yl)imidazo[1,2-b]pyridazin-3-yl)pyridin-2-amine], the pIC50 was 7.30 at IRAK1; 9.00 at IRAK4; 7.10 in the assay on NF-κB (setting [2]); 7.01 with NF-κB (setting [3]); over 9.30 on FLT3.

Regarding `COc1cc2ncc(-c3nc(N[C@H]4CNCC[C@@H]4F)c(F)cc3F)n2nc1C1CCO1` (stereo partly drawn) [Compound 74a, 3,5-difluoro-N-((3S,4S)-4-fluoropiperidin-3-yl)-6-(7-methoxy-6-(oxetan-2-yl)imidazo[1,2-b]pyridazin-3-yl)pyridin-2-amine], the pIC50 on IRAK1 was 7.23; against IRAK4 it was 8.52; in the assay on NF-κB (setting [2]) it was 6.60; in the assay on NF-κB (setting [3]), 6.46; at FLT3, over 9.30.

As to `Oc1cc2ncc(-c3nc(N[C@@H]4CCCNC4)c(F)cc3F)n2nc1C1CC1` [Compound 75a, (R)-6-cyclopropyl-3-(3,5-difluoro-6-(piperidin-3-ylamino)pyridin-2-yl)imidazo[1,2-b]pyridazin-7-ol], the pIC50 against IRAK1 is 6.33; against IRAK4 it was 7.47; with NF-κB (setting [2]), 5.76; in the assay with NF-κB (setting [3]), 5.64; on FLT3, 9.10.

For the compound `Fc1cc(F)c(-c2cnc3cc(OCC(F)F)cnn23)nc1N[C@@H]1CCCNC1` [Compound 83a, (R)-6-(7-(2,2-difluoroethoxy)imidazo[1,2-b]pyridazin-3-yl)-3,5-difluoro-N-(piperidin-3-yl)pyridin-2-amine], the pIC50 against IRAK1 is 5.76; at IRAK4 it was 7.28; in the assay on MOLM14 D835Y cells, 7.04; against FLT3, 9.30.

As to `Fc1cc(F)c(-c2cnc3cc(OCC(F)F)cnn23)nc1N[C@H]1CNCC[C@@H]1F` [Compound 84a, 6-(7-(2,2-difluoroethoxy)imidazo[1,2-b]pyridazin-3-yl)-3,5-difluoro-N-((3S,4S)-4-fluoropiperidin-3-yl)pyridin-2-amine], the negative logarithm of the IC50 (pIC50) is 6.07 against IRAK1, 8.40 at IRAK4, 7.34 with MOLM14 D835Y cells and over 9.30 against FLT3.
